Test systems include SNB-78; KM-20L2; M19-MEL; DMS-114; DLD-1; LXFL 529; XF498; HOP-18; RXF 631.
Assay in all cases: growth of human tumour cells (NCI), 48 h

Structures are written as SMILES.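 Each compound was tested at five concentrations against cells in 96-well plates for 48 hours. Abbreviation: GI50, concentration required for 50% inhibition of growth.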 Active and inactive are the calls of the source. No stated cut-off is given here; in the data, active = GI50 up to about 1.1 µM and inactive = higher. Bounds are passed on as bounds.

Turning to `O=C(O)/C(Cl)=C(Cl)/C=N/NC(=O)c1cc2ccccc2cc1O`, the GI50 in the assay on SNB-78 was 33.7 µM (inactive); in the assay with KM-20L2, 28.8 µM (inactive); in the assay on M19-MEL, 17.9 µM (inactive); in the assay with DMS-114, 17.3 µM (inactive); in the assay on DLD-1 it was 7.69 µM (inactive); in the assay with LXFL 529, 21.6 µM (inactive). For the same molecule, the GI50 in the assay with XF498 is 35.4 µM (inactive); in the assay with HOP-18 it was 13.5 µM (inactive); in the assay with RXF 631, 26.4 µM (inactive).
For the molecule `Cc1ccc(/C=C2\CCCC(C(NO)c3ccc(C)cc3)C2=NO)cc1` (configuration not stated), the GI50 in the assay on SNB-78 was 60 µM (inactive); with KM-20L2, 21.7 µM (inactive); in the assay with M19-MEL, 69.5 µM (inactive); in the assay on DMS-114 it was 30.3 µM (inactive); in the assay on DLD-1 it was 28 µM (inactive); with LXFL 529, 61.7 µM (inactive). Also, the GI50 with XF498 is 43.7 µM (inactive); in the assay with HOP-18 it was 11.4 µM (inactive); with RXF 631, 27.4 µM (inactive).
As for `COc1nc2c(c(O)c(C)c(=O)n2OC2OC(COC(C)=O)C(OC(C)=O)C(OC(C)=O)C2OC(C)=O)c(=O)n1C` (configuration not stated), the GI50 in the assay on SNB-78, in the assay on KM-20L2, in the assay on M19-MEL, in the assay on DMS-114, in the assay with DLD-1 and in the assay with LXFL 529 was > 100 µM (inactive) each time. In addition, the GI50 with XF498 and in the assay on RXF 631 was > 100 µM (inactive) throughout.
Take `CCOC(C)C(/C=N/NC(N)=S)=NNC(N)=S` (configuration not stated) [GLOXAZONE]: the GI50 in the assay on SNB-78 was 53.7 µM (inactive); in the assay with M19-MEL, > 100 µM (inactive); in the assay with DMS-114, < 0.01 µM (active); with DLD-1, > 100 µM (inactive); in the assay on LXFL 529, 0.0865 µM (active).
Take `CSc1nnc(C(C#N)C#N)nn1`: the GI50 with SNB-78, in the assay on KM-20L2, in the assay on M19-MEL, with DMS-114, in the assay on DLD-1 and in the assay with LXFL 529 was > 100 µM (inactive) each time. Moreover, the GI50 in the assay on XF498 and in the assay with RXF 631 was > 100 µM (inactive) throughout.
For `O=C(c1ccccc1)c1c(CNCc2ccccc2)n(C(=O)c2ccccc2)c2ccccc12`, the GI50 with KM-20L2 is 40 µM (inactive); in the assay on M19-MEL it was 92.3 µM (inactive); in the assay on DMS-114, 21.2 µM (inactive); with DLD-1, 35.4 µM (inactive); in the assay on LXFL 529, 30.4 µM (inactive); with XF498, > 100 µM (inactive).
With `Cc1cc(=O)n(-c2ccccc2C)c(C)n1`, the GI50 in the assay on SNB-78, in the assay with KM-20L2, with M19-MEL, in the assay with DMS-114, in the assay on DLD-1 and with LXFL 529 was > 100 µM (inactive) throughout. In addition, the GI50 with HOP-18 and in the assay on RXF 631 was > 100 µM (inactive) in each case.
Turning to `CCCCOC(=O)C1C(c2ccc(Cl)cc2)NC(c2ccc(Cl)cc2)C(C(=O)OCCCC)S1(=O)=O` (configuration not stated), the GI50 with KM-20L2 is > 100 µM (inactive); in the assay on M19-MEL, > 100 µM (inactive); in the assay on DMS-114 it was > 100 µM (inactive); in the assay with DLD-1, > 100 µM (inactive); in the assay with LXFL 529 it was 69.8 µM (inactive); with XF498, > 100 µM (inactive). For the same molecule, the GI50 in the assay with HOP-18 was > 100 µM (inactive).
`CCOC1=C2N=C(C(CC)c3ccccc3F)N=C2C(=O)c2ccccc21` (configuration not stated): the GI50 with KM-20L2, in the assay on M19-MEL, in the assay on DMS-114, in the assay with LXFL 529 and in the assay on RXF 631 was > 100 µM (inactive) throughout.
In the case of `COc1ccc(N2C(=O)C3CC(c4ccc(C)cc4)c4c([nH]c5ccccc45)C3C2=O)cc1` (configuration not stated), the GI50 was > 51.4 µM (inactive) in the assay on SNB-78; 10.9 µM (inactive) with KM-20L2; > 75.9 µM (inactive) in the assay on M19-MEL; > 49.7 µM (inactive) in the assay with DMS-114; 38.6 µM (inactive) in the assay on DLD-1; 28.7 µM (inactive) with LXFL 529. Moreover, the GI50 was 27.2 µM (inactive) with XF498 and 2.88 µM (inactive) with HOP-18.
On to `NCC(NC(=O)OCc1ccccc1)C(=O)O` (configuration not stated), for which the GI50 in the assay on SNB-78, in the assay on KM-20L2, with M19-MEL, in the assay on DMS-114, in the assay on DLD-1 and with LXFL 529 was > 50 µM (inactive) throughout. The GI50 in the assay with HOP-18 is > 50 µM (inactive).
`COc1cc2oc(-c3ccccc3)cc(=O)c2c(O)c1C`: the GI50 in the assay with SNB-78, in the assay on KM-20L2, in the assay on M19-MEL, in the assay with DMS-114, in the assay on DLD-1 and with LXFL 529 was > 100 µM (inactive) throughout.
`COc1ccc(/C=C2\CCC(C)(CN(C)C)C2=O)cc1` (configuration not stated): the GI50 in the assay with SNB-78 is > 100 µM (inactive); with KM-20L2 it was > 100 µM (inactive); in the assay on M19-MEL, > 100 µM (inactive); in the assay with DMS-114, 76 µM (inactive); with DLD-1, > 100 µM (inactive); with LXFL 529 it was > 100 µM (inactive). Also, the GI50 was > 100 µM (inactive) in the assay on XF498, > 100 µM (inactive) in the assay with HOP-18 and 40.4 µM (inactive) in the assay on RXF 631.
As to `CN1NC2(CCCCC2)ON=C1c1ccccc1`, the GI50 with SNB-78, with KM-20L2, in the assay on DMS-114, in the assay with DLD-1 and in the assay with HOP-18 was > 100 µM (inactive) in each case.
With `CCCCN(CCCC)C(=O)C(=O)C(C)C(=O)CC` (configuration not stated), the GI50 in the assay with SNB-78, in the assay with KM-20L2, in the assay on DLD-1, in the assay on LXFL 529 and in the assay with XF498 was > 100 µM (inactive) throughout.
Consider `C=C(C)[C@@H]1CC[C@]2(C)CC[C@]3(C)[C@H](CC[C@@H]4[C@@]5(C)CC[C@H](O)C(C)(C)[C@@H]5CC[C@]43C)[C@@H]12` [LUPEOL], for which the GI50 is > 100 µM (inactive) in the assay with KM-20L2; > 100 µM (inactive) in the assay on M19-MEL; 65.8 µM (inactive) in the assay with DMS-114; > 100 µM (inactive) in the assay on DLD-1; > 100 µM (inactive) in the assay with LXFL 529; > 100 µM (inactive) in the assay on XF498.
As to `CCOC(C/N=c1/nc(N(C)C)ss1)OCC`, the GI50 in the assay with SNB-78 is 24.6 µM (inactive); in the assay with KM-20L2, 27.7 µM (inactive); in the assay with M19-MEL it was 0.504 µM (active); with DMS-114 it was 18 µM (inactive); in the assay with DLD-1, 16.4 µM (inactive); in the assay on LXFL 529, 0.489 µM (active). Further, the results for the GI50 in the assay on XF498, in the assay with HOP-18 and in the assay on RXF 631 were 15 µM (inactive), > 66.4 µM (inactive) and 18.4 µM (inactive), respectively.
Turning to `CC(=O)Nc1ccc(C(=O)NN2C(=O)C(Cl)C2c2ccccc2O)cc1` (configuration not stated), the GI50 in the assay with KM-20L2 was > 100 µM (inactive); with DLD-1 it was > 100 µM (inactive); in the assay on LXFL 529, > 100 µM (inactive); with XF498, 28.1 µM (inactive).
In the case of `CCCCCCCCCCCCCCCC(=O)Nc1ccn(C2OC(CO)C(O)C2O)c(=O)n1` (configuration not stated), the GI50 was > 100 µM (inactive) with SNB-78; 40.3 µM (inactive) in the assay with KM-20L2; 13.1 µM (inactive) in the assay on M19-MEL; 4.89 µM (inactive) in the assay with DMS-114; > 54.7 µM (inactive) in the assay with DLD-1; 39.5 µM (inactive) in the assay with LXFL 529. The GI50 in the assay on HOP-18 is 21.4 µM (inactive).
Consider `NNC(=O)N/N=C1\C(=O)N(c2ccc(Cl)c(Cl)c2)C(=O)C(=O)C1c1nc2ccccc2s1` (configuration not stated), for which the GI50 in the assay on SNB-78, in the assay with KM-20L2, with DMS-114, in the assay on DLD-1, with LXFL 529 and in the assay on XF498 was > 100 µM (inactive) each time. Moreover, the GI50 with HOP-18 was > 100 µM (inactive).
Regarding `Cc1ccc(S(=O)(=O)C(CC(NC=O)S(=O)(=O)c2ccc(C)cc2)NC=O)cc1` (configuration not stated), the GI50 with SNB-78, with KM-20L2, with M19-MEL, with DMS-114, with DLD-1 and with LXFL 529 was > 100 µM (inactive) throughout. Moreover, the GI50 in the assay with XF498 and with RXF 631 was > 100 µM (inactive) throughout.
For `Cc1cc2c(C)nn(Cc3ccccc3Cl)c2c(C#N)c1C`, the GI50 with KM-20L2, in the assay on M19-MEL, with DLD-1, with LXFL 529, in the assay on XF498 and in the assay on HOP-18 was > 100 µM (inactive) in each case. In addition, the GI50 with RXF 631 is > 100 µM (inactive).
As for `Cc1ccc(-c2cc(=O)c3cc(C)c(C)c(C(=O)O)c3o2)cc1`, the GI50 with SNB-78, in the assay with KM-20L2, with M19-MEL, in the assay on DMS-114, in the assay with DLD-1 and with LXFL 529 was > 100 µM (inactive) throughout. Besides, the GI50 in the assay on XF498 and with RXF 631 was > 100 µM (inactive) throughout.
For the molecule `C/C=C/C#CC#C/C=C/C=C/C(O)CCO` (configuration not stated), the GI50 in the assay on SNB-78, with KM-20L2, in the assay on M19-MEL, in the assay on DMS-114, with DLD-1 and with LXFL 529 was > 23.1 µM (inactive) each time. The GI50 with XF498 and with HOP-18 was > 23.1 µM (inactive) each time.
On to `Cc1ccccc1C1OC(=O)c2ccccc21` (configuration not stated), for which the GI50 in the assay on SNB-78, in the assay with KM-20L2, in the assay on M19-MEL, in the assay with DMS-114, in the assay on DLD-1 and in the assay with LXFL 529 was > 100 µM (inactive) each time. In addition, the GI50 with HOP-18 and with RXF 631 was > 100 µM (inactive) throughout.
